The compounds below were run on Plasmodium falciparum (assay: Antiplasmodial activity against chloroquine-sensitive Plasmodium falciparum 3D7 infected in human erythrocytes assessed as inhibition of [3H]hypoxanthine incorporation after 48 hrs by liquid scintillation counting). Settings: not given; call rule not given here.
Format: functional, organism-based

With `O=C(CCCC[C@@H]1SC[C@@H]2NC(=O)N[C@@H]21)NS(=O)(=O)c1cccc(CNC(=O)C23CC4CC(C2)[C@]2(OO[C@]5(CCCCC5)O2)C(C4)C3)c1` the IC50 was “Not Active”.

Same assay, conditions: Plasmodium falciparum, 3D7; read-out: IC50

Going from `O=C(NCCCC[C@H]1SC[C@H]2NC(=O)N[C@H]21)NCc1cccc(CNC(=O)C23CC4CC(C2)[C@]2(OO[C@]5(CCCCC5)O2)C(C4)C3)c1` to `CC(C)(C)OC(=O)NCc1cccc(CNC(=O)C23CC4CC(C2)[C@]2(OO[C@]5(CCCCC5)O2)C(C4)C3)c1`, the IC50 rises from 2.4 nM to 5.1 nM (2.1-fold). The first is the more potent here.

First: O=C(NCc1cccc(CNC(=O)C23CC4CC(C2)[C@]2(OO[C@]5(CCCCC5)O2)C(C4)C3)c1)OCC1c2ccccc2-c2ccccc21
Second: COC(=O)C12CC3CC(C1)[C@]1(OO[C@]4(CCCCC4)O1)C(C3)C2
The IC50 of the first is 4.7-fold higher: 27 nM for the first, 5.7 nM for the second. The second is the more potent here.

Compared with `C[C@H]1[C@@H](CC(=O)NCc2cccc(CNC(=O)c3ccc(S(=O)(=O)NC(=O)CCCC[C@@H]4SC[C@@H]5NC(=O)N[C@@H]54)cc3)c2)O[C@@H]2O[C@]3(C)CC[C@H]4[C@H](C)CC[C@@H]1[C@@]24OO3`, `C[C@H]1[C@@H](CC(=O)NCc2cccc(CNC(=O)CCSSCCNC(=O)CCCC[C@@H]3SC[C@@H]4NC(=O)N[C@@H]43)c2)O[C@@H]2O[C@]3(C)CC[C@H]4[C@H](C)CC[C@@H]1[C@@]24OO3` is lower in IC50: > 1000 nM for the first, 91 nM for the second.

Compared with `C[C@H]1[C@@H](CCOC(=O)NCCCCC[C@@H]2SC[C@@H]3NC(=O)N[C@@H]32)O[C@@H]2O[C@]3(C)CC[C@H]4[C@H](C)CC[C@@H]1[C@@]24OO3`, `O=C(O)C12CC3CC(C1)[C@]1(OO[C@]4(CCCCC4)O1)C(C3)C2` is 94-fold higher in IC50: 1.6 nM for the first, 150 nM for the second. The first is the more potent here.

Work on `OCC12CC3CC(C1)[C@]1(OO[C@]4(CCCCC4)O1)C(C3)C2` yielded an IC50 of 8.4 nM.

From ChEMBL document CHEMBL1155550, “Rationale design of biotinylated antimalarial endoperoxide carbon centered radical prodrugs for applications in proteomics” (J Med Chem, 2010)
